Laboratory results as given in patent publication US20090270350A1, “Pyridinone Pyrazole Urea and Pyrimidinone Pyrazole Urea Derivatives” (PFIZER INC., priority 2006, published 2009).

What was measured:
p38α = p38α (Homo sapiens, UniProt Q16539); test: p38α/MK2 cascade assay; type: biochemical; details: Table 1; inhibitors preincubated with p38α for 40 minutes; phosphorylation of Hsp27 peptide by MK-2, Caliper LabChip 3000; read-out: p38a/MK2 Cascade 40 min Pre-Incuabtion (% Inhibition): IC50
Summary of the method: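 In a cascade format, p38α was preincubated 40 min with inhibitor (1000–0.05 nM) before adding 1 nM nonactive MK2 (54-400), 5 μM MgATP and 0.5 μM FITC-Hsp27 peptide. Reaction ran 60 min in HEPES pH 7.5 with MgCl2, DTT, 2% DMSO, then EDTA-quenched. Peptide phosphorylation was measured by Caliper mobility shift to give IC50.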

Chain of p38α (Q16539 whole entry): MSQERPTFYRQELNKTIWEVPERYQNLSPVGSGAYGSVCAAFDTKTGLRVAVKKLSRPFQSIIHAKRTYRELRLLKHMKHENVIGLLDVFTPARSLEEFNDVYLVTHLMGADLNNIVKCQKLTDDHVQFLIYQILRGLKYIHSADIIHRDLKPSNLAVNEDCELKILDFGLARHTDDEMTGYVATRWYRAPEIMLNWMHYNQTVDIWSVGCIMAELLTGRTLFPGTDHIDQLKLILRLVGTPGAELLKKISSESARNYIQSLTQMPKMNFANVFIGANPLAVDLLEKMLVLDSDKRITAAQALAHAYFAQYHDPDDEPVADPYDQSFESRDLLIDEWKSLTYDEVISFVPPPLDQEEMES

Row | SMILES | IC50 (p38α) [nM] | melting point [°C]
1 | Cc1ccc(C(=O)NC(C)C(N)=O)cc1-n1c(C)cc(OCc2ccccc2CNC(=O)Nc2cc(C(C)(C)C)nn2-c2ccc(O)c(Cl)c2)c(Cl)c1=O (stereo in doubt) [Example 159, (R)-3-[4-(2-{3-[5-tert-butyl-2-(3-chloro-4-hydroxy-phenyl)-2H-pyrazol-3-yl]-ureidomethyl}-benzyloxy)-3-chloro-6-methyl-2-oxo-2H-pyridin-1-yl]-N-(1-carbamoyl-ethyl)-4-methyl-benzamide] | 2.5 | 192 to 193
2 | CNC(=O)CNC(=O)c1ccc(C)c(-n2c(C)cc(OCc3ccccc3CNC(=O)Nc3cc(C(C)(C)C)nn3-c3ccc(O)c(Cl)c3)c(Cl)c2=O)c1 [Example 156, 3-[4-(2-{3-[5-tert-butyl-2-(3-chloro-4-hydroxy-phenyl)-2H-pyrazol-3-yl]-ureidomethyl}-benzyloxy)-3-chloro-6-methyl-2-oxo-2H-pyridin-1-yl]-4-methyl-N-methylcarbamoylmethyl-benzamide] | 3.5 | 209 to 211
3 | Cc1ccc(C(=O)NCCN(C)C)cc1-n1c(C)cc(OCc2ccccc2CNC(=O)Nc2cc(C(C)(C)C)nn2-c2ccc(Cl)c(O)c2)c(Cl)c1=O [Example 165, 3-[4-(2-{3-[5-tert-butyl-2-(4-chloro-3-hydroxy-phenyl)-2H-pyrazol-3-yl]-ureidomethyl}-benzyloxy)-3-chloro-6-methyl-2-oxo-2H-pyridin-1-yl]-N-(2-dimethylamino-ethyl)-4-methyl-benzamide] |  | 185 to 186
4 | Cc1ccc(C(=O)NCCN(C)C)cc1-n1c(C)cc(OCc2ccc(F)cc2CNC(=O)Nc2cc(C(C)(C)C)nn2-c2ccc(Cl)c(O)c2)c(Cl)c1=O [Example 166, 3-[4-(2-{3-[5-tert-Butyl-2-(4-chloro-3-hydroxy-phenyl)-2H-pyrazol-3-yl]-ureidomethyl}-4-fluoro-benzyloxy)-3-chloro-6-methyl-2-oxo-2H-pyridin-1-yl]-N-(2-dimethylamino-ethyl)-4-methyl-benzamide] |  | 177 to 178
5 | CNC(=O)CNC(=O)c1ccc(C)c(-n2c(C)cc(OCc3ccccc3CNC(=O)Nc3cc(C(C)(C)C)nn3-c3ccc(Cl)c(O)c3)c(Cl)c2=O)c1 [Example 167, 3-[4-(2-{3-[5-tert-Butyl-2-(4-chloro-3-hydroxy-phenyl)-2H-pyrazol-3-yl]-ureidomethyl}-benzyloxy)-3-chloro-6-methyl-2-oxo-2H-pyridin-1-yl]-4-methyl-N-methylcarbamoylmethyl-benzamide] | 1.7 | 179 to 181
6 | Cc1ccc(C(=O)NCC(O)CO)cc1-n1c(C)cc(OCc2ccccc2CNC(=O)Nc2cc(C(C)(C)C)nn2-c2ccc(Cl)c(O)c2)c(Cl)c1=O (stereo not drawn) [Example 168, 3-[4-(2-{3-[5-tert-Butyl-2-(4-chloro-3-hydroxy-phenyl)-2H-pyrazol-3-yl]-ureidomethyl}-benzyloxy)-3-chloro-6-methyl-2-oxo-2H-pyridin-1-yl]-N-(2,3-dihydroxy-propyl)-4-methyl-benzamide] |  | 169 to 171
7 | CNC(=O)c1ccc(C)c(-n2c(C)cc(OCc3ccc(F)cc3CNC(=O)Nc3cc(C(C)(C)C)nn3-c3ccc(O)c(Cl)c3)c(Cl)c2=O)c1 [Example 169, 3-[4-(2-{3-[5-tert-butyl-2-(3-chloro-4-hydroxy-phenyl)-2H-pyrazol-3-yl]-ureidomethyl}-4-fluoro-benzyloxy)-3-chloro-6-methyl-2-oxo-2H-pyridin-1-yl]-4,N-dimethyl-benzamide] |  | 177 to 180
8 | COCCNC(=O)c1ccc(C)c(-n2c(C)cc(OCc3ccccc3CNC(=O)Nc3cc(C(C)(C)C)nn3-c3cccc(OCCO)c3)c(Cl)c2=O)c1 [Example 173] |  | 143 to 145
9 | Cc1ccc(C(=O)NCCN(C)C)cc1-n1c(C)cc(OCc2ccccc2CNC(=O)Nc2cc(C(C)(C)C)nn2-c2cccc(OCCO)c2)c(Cl)c1=O [Example 174] |  | 164 to 165
10 | Cc1ccc(C(=O)NCCN(C)C)cc1-n1c(C)cc(OCc2ccc(F)cc2CNC(=O)Nc2cc(C(C)(C)C)nn2-c2cccc(OCCO)c2)c(Cl)c1=O [Example 178] | 1.4 | 158 to 160
11 | Cc1ccc(C(=O)OCCO)cc1-n1c(C)cc(OCc2ccc(F)cc2CNC(=O)Nc2cc(C(C)(C)C)nn2-c2cccc(OCCO)c2)c(Cl)c1=O [Example 180, 3-{4-[2-(3-{5-tert-butyl-2-[3-(2-hydroxy-ethoxy)-phenyl]-2H-pyrazol-3-yl}-ureidomethyl)-4-fluoro-benzyloxy]-3-chloro-6-methyl-2-oxo-2H-pyridin-1-yl}-4-methyl-benzoic acid 2-hydroxy-ethyl ester] |  | 180 to 181
